Measured values as given in paper PMC8397403, “Physiologically Based Pharmacokinetic Modeling of Transporter-Mediated Hepatic Disposition of Imaging Biomarker Gadoxetate in Rats” (Molecular Pharmaceutics, 2021).
Several values for one entry are separate records, joined by “and”; a condition that tells them apart may be missing. Equal entries are not always repeated. Marks after values point to notes of the source that are not given here.

Columns and labels:
[1] = Top-down PBPK model fitting to DCE-MRI ΔR1 data, gadoxetate administered alone; assay type: in vivo, rat
Method: (§1) DCE–MRI data generated using the 3D Fast Low Angle Shot RF-spoiled gradient echo sequence (FLASH) protocol in male Wistar-Han rats were used for assessing the PBPK IVIVE performances and for obtaining some of the PBPK parameters within the bottom-up and top-down approaches, respectively. The DCE–MRI data were acquired in a multicenter study at two magnetic field strengths, 4.7 and 7 T. Gadoxetate was administered at a dose of 25 μmol/kg, either alone or 1 h after IV administration of 10 mg/kg rifampicin. When gadoxetate was administered alone (control arm), 43 profiles of blood, spleen, and liver measured at a field strength of 4.7 T and 52 profiles of blood, spleen, and liver measured at 7 T were available. In the case of gadoxetate administered with rifampicin, 7 blood, spleen, and liver profiles at a field strength equal to 4.7 T and 6 at 7 T were available. All gadoxetate DCE–MRI data and study protocols are detailed in a companion paper (Hines et al. in submission).
The measured quantity in DCE–MRI is ΔR1 (s^–1), the change of the water proton longitudinal relaxation rate, a magnetic property of the tissues, due to the presence of the contrast agent. In sufficiently homogeneous tissues, the tissue concentration of the contrast agent as a function of time, c(t), can be derived from ΔR1(t). The relationship between c(t) and ΔR1(t) depends on the physical interactions between the contrast agent molecules and the tissue.[39] For a given tissue τ, the relation between ΔR1,τ(t) and cτ(t) is generally considered to be linear, as in eq 4.[39],[40] [drawing 4] 4
A reduced PBPK model was developed to describe the PK of gadoxetate in rats; a permeability-limited liver model was implemented capturing relevant processes, as done previously.[6],[41] The compartments represent the blood, spleen, splanchnic organs, liver interstitial space, hepatocytes, and the rest of the body (ROB) vascular and extravascular spaces. The ROB compartment includes muscles, skin, bones, and fat among others. Details of model equations and physiological parameters values are reported in the Supporting Information, Sections 2, 3, and 5.
Standard kinetic models used for MRI contrast agents generally describe the organs by using three compartments: plasma, interstitial, and intracellular spaces.[12],[42],[43] Gadoxetate distributes only in the extracellular space of all the organs; liver is the exception, where gadoxetate undergoes active uptake into the hepatocytes.[44] Therefore, in the gadoxetate PBPK model, the volume of all the compartments, except the blood and the liver, corresponded to the organ extracellular space, that in turn was considered to be composed of the blood within the organ and the interstitial space. For highly vascularized and perfused organs with fenestrated capillaries (e.g., liver), the exchange between the plasma and the interstitial space is generally considered to be fast.[12],[19] Therefore, for liver, spleen, and splanchnic compartments, the extracellular volumes were considered to be the sum of the blood within the organ and the interstitial space volumes. […] A permeability limitation between the vascular and interstitial space was, therefore, assumed for the ROB compartment, as shown in eq 5. [drawing 5] 5 cb, crob,v and crob,ev [μmol/L] are the gadoxetate concentration in blood and ROB vascular and extravascular compartments; Vrob,v and Vrob,ev [L] are the ROB vascular and extravascular compartment volumes, respectively; and PS [L/h] is the permeability surface product. […]

[2] = tested on: active uptake transport of gadoxetate into the liver; assay: Simultaneous PBPK fitting of gadoxetate DCE-MRI data in control and rifampicin phases; assay type: in vivo, rat; settings: value (CV)
Method: as §1
The DCE–MRI data used in this study were reported as ΔR1. Therefore, the relationship between the compartmental concentrations represented by the PBPK model state variables and the ΔR1 measurements for the blood, liver, and spleen needed to be described. The linear relationship in eq 4 is not valid for ΔR1 of the liver, ΔR1,liv, because intracellular and extracellular tissue compartments have different relaxivities. To derive ΔR1,liv, a volume fraction-weighted mean of the contributions of the gadoxetate concentration in all the compartments used to model the liver was performed.[40] In the spleen, the entire distribution space was supposed to have the same relaxivity as blood and, therefore, eq 4 can be applied directly to derive spleen concentrations from ΔR1,spl. Concerning the blood, the blood value for r1 in Table 1 allows ΔR1,b to be directly related to the blood concentration. The relations between ΔR1,liv, ΔR1,spl, and ΔR1,b and the concentrations of the PBPK compartments are shown in eq 7. [drawing 7] 7 cspl,extr is the extracellular concentration in the spleen and Vspl,extr is the extracellular volume of the spleen and Vliv and Vspl are the whole volumes of liver and spleen. r1,liv,extr and r1,spl,extr were assumed to be equal to r1,b, as described in Hines et al.
In fact, each of the data are acquired during a time interval Δt, which was 57 s in the current dataset. To account for this characteristic when performing the parameter estimation, the residuals were calculated as the difference of the observed ΔR1 corresponding to a given time interval minus the mean of the simulated PBPK ΔR1 within the same interval, as explained in the Supporting Information, Section 4.
The extent of interaction with rifampicin was estimated by performing a simultaneous fitting of gadoxetate ΔR1 in the control and inhibitory phase. In this analysis, PS was considered the same for both phases, whereas the other parameters were separately estimated in the absence (CLactive and CLbiliary) and in the presence of rifampicin (CLactive,inh and CLbiliary,inh). CLbiliary,inh was considered to account for possible inhibition of Mrp2 in rat by rifampicin, as previously reported.[45] To understand the impact of the inclusion of the liver-imaging data on the parameter optimization, the simultaneous estimation was also performed considering only the blood data.
All the PBPK analyses were performed in MATLAB R2020a,[50] the ordinary differential equations were solved with the function “ode15s”, while the parameter optimization was performed with the function “lsqnonlin”. The uncertainty of the parameters estimate was evaluated with the case-bootstrap,[51] using 1000 samples.

[3] = renal clearance calculated as CLtotal × fe, rat weight 0.25 kg; fixed literature value; cited from earlier work
[4] = fit to blood, spleen and liver ΔR1, gadoxetate alone, mean (CV %) of 1000 bootstrap samples
[5] = gadoxetate alone, blood data only, value (CV)
[6] = gadoxetate alone, blood, spleen, liver ΔR1, CLr also estimated, value (CV)
[7] = gadoxetate 1 h after rifampicin i.v. 10 mg/kg, simultaneous fit
[8] = simultaneous fit, 5-compartment liver model
[9] = with rifampicin, 5-compartment liver model

For `CCOc1ccc(C[C@@H](CN(CCN(CC(=O)[O-])CC(=O)[O-])CC(=O)[O-])N(CC(=O)[O-])CC(=O)[O-])cc1.[Gd+3].[H+].[H+]` [gadoxetate], the “CLactive, top-down estimate” value ([1]; fit to blood, spleen and liver ΔR1, gadoxetate alone 25 μmol/kg, mean (CV %) of 1000 bootstrap samples) was 2.17 (11.5%) ^b L/h, the “CLbiliary, top-down estimate” value [1, 4] was 0.07 (3.2%) ^b L/h and the “PS, top-down estimate” value [1, 4] was 0.62 (6.3%) ^b L/h. For the same molecule, the “CLactive, estimated only with ΔR1 blood data” value [1, 5] was 1.88 (23.2 %) L/h and 1.88 L/h, the “PS, estimated only with ΔR1 blood data” value [1, 5] was 1.92 (20.8 %) L/h and 1.92 L/h and the “CLactive, simultaneous estimation with CLr” value [1, 6] was “practically unidentifiable”. For the same molecule, the “CLbiliary, simultaneous estimation with CLr” value [1, 6] was 0.07 (2.6 %) L/h, the “PS, simultaneous estimation with CLr” value [1, 6] was 0.58 (8.3 %) L/h and the “CLactive, simultaneous estimation with CLr” value ([1]; gadoxetate alone, blood, spleen, liver ΔR1, CLr also estimated, value (CV), listed as Gadoxetate) was 3.11 (>1000 %) L/h. For the same molecule, the “CLr, estimated” value ([1]; gadoxetate alone, blood, spleen, liver ΔR1, value (CV)) was 0.40 (24.6 %) L/h, the “CLactive, estimated value (with rifampicin) (CLactive,inh)” value [2, 7] was 0.095 (16.1%) L/h and the “CLbiliary, estimated value (with rifampicin) (CLbiliary,inh)” value [2, 7] was 0.08 (16.7%) L/h. The “CLactive, estimated value (control)” value ([2]; simultaneous fit of control and rifampicin phases, blood, spleen, liver ΔR1) was 2.38 (13.6%) L/h, the “CLbiliary, estimated value (control)” value ([2]; simultaneous fit of control and rifampicin phases) was 0.07 (3.1%) L/h and the “PS, blood ΔR1 only” value ([2]; simultaneous fit using only blood ΔR1, both groups) was 2.07 (20 %) L/h. The “CLactive control group, blood ΔR1 only” value ([2]; simultaneous fit using only blood ΔR1) was 1.82 (30 %) L/h and 1.82 L/h, the “CLactive control group, 5-compartment liver model” value [2, 8] was 1.45 (7.4 %) L/h and the “CLbiliary control group, 5-compartment liver model” value [2, 8] was 0.07 (3.2 %) L/h. For the same molecule, the “PS, 5-compartment liver model” value ([2]; simultaneous fit, both groups) was 0.81 (7.2 %) L/h, the “PS, estimated value” ([2]; simultaneous fit, same for both phases) was 0.71 (5.7%) L/h and the “CLactive rifampicin group (CLactive,inh), blood ΔR1 only” value ([2]; with rifampicin 10 mg/kg, simultaneous fit using only blood ΔR1) was 0.29 (45 %) L/h and 0.29 L/h. For the same molecule, the “CLactive rifampicin group, 5-compartment liver model” value [2, 9] was 0.065 (28.2 %) L/h, the “CLbiliary rifampicin group, 5-compartment liver model” value [2, 9] was 0.07 (26.6 %) L/h and the CLr [3] was 0.17 L/h.
